Key:
Test in all cases: relative viability (nuclei count vs DMSO), 5 days (fraction); higher = more cells survive
[1] = test system: 201T
Outline: (§1)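 Lung cancer cell lines in 1536-well plates got either a single drug or a fixed anchor-drug dose together with five library-drug doses (not always all listed) in √10 steps, by pin tool, on the day after seeding. Nuclei were counted after 5 days, and relative viability is the treated-to-vehicle ratio of nuclei counts. Values are medians of duplicate plates.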

[2] = test system: BEN
Outline: as §1

[3] = test system: CAL-12T
Outline: as §1

[4] = test system: HCC-827
Outline: as §1

[5] = test system: LCLC-103H
Outline: as §1

[6] = test system: LCLC-97TM1
Outline: as §1

[7] = test system: LXF-289
Outline: as §1

[8] = test system: NCI-H1395
Outline: as §1

[9] = test system: NCI-H1437
Outline: as §1

[10] = test system: NCI-H1650
Outline: as §1

[11] = test system: NCI-H1792
Outline: as §1

[12] = test system: NCI-H1793
Outline: as §1

[13] = test system: NCI-H1944
Outline: as §1

[14] = test system: NCI-H2087
Outline: as §1

[15] = test system: NCI-H2228
Outline: as §1

[16] = test system: NCI-H2405
Outline: as §1

[17] = test system: NCI-H3122
Outline: as §1

[18] = test system: NCI-H322M
Outline: as §1

[19] = test system: NCI-H647
Outline: as §1

[20] = test system: NCI-H727
Outline: as §1

[21] = test system: RERF-LC-KJ
Outline: as §1

[22] = test system: SK-LU-1
Outline: as §1

COc1cc2nccc(Oc3ccc(NC(=O)Nc4cc(C)on4)c(Cl)c3)c2cc1OC [Tivozanib] + Cc1nc(Nc2ncc(C(=O)Nc3c(C)cccc3Cl)s2)cc(N2CCN(CCO)CC2)n1 [Dasatinib] (partner 0.075 µM) gave a relative viability ([1]; first compound 0.005 µM) of 0.536, a relative viability ([1]; first compound 0.01581 µM) of 0.566 and a relative viability ([1]; first compound 0.05 µM) of 0.6. For the same compound, the relative viability ([1]; first compound 0.1581 µM) was 0.57, the relative viability ([1]; first compound 0.5 µM) was 0.553 and the relative viability ([2]; first compound 0.005 µM) was 0.254. For the same compound, the relative viability ([2]; first compound 0.01581 µM) was 0.342, the relative viability ([2]; first compound 0.05 µM) was 0.369 and the relative viability ([2]; first compound 0.1581 µM) was 0.225. For the same compound, the relative viability ([2]; first compound 0.5 µM) was 0.25, the relative viability ([3]; first compound 0.005 µM) was 0.402 and the relative viability ([3]; first compound 0.01581 µM) was 0.527. The relative viability ([3]; first compound 0.05 µM) was 0.481, the relative viability ([3]; first compound 0.1581 µM) was 0.343 and the relative viability ([3]; first compound 0.5 µM) was 0.285. It also gave a relative viability ([4]; first compound 0.005 µM) of 0.288, a relative viability ([4]; first compound 0.01581 µM) of 0.36 and a relative viability ([4]; first compound 0.05 µM) of 0.317. For the same compound, the relative viability ([4]; first compound 0.1581 µM) was 0.338, the relative viability ([4]; first compound 0.5 µM) was 0.231 and the relative viability ([5]; first compound 0.005 µM) was 0.459. The relative viability ([5]; first compound 0.01581 µM) was 0.524, the relative viability ([5]; first compound 0.05 µM) was 0.513 and the relative viability ([5]; first compound 0.1581 µM) was 0.433. It also gave a relative viability ([5]; first compound 0.5 µM) of 0.469, a relative viability ([6]; first compound 0.005 µM) of 0.941 and a relative viability ([6]; first compound 0.01581 µM) of 0.855. The relative viability ([6]; first compound 0.05 µM) was 0.923, the relative viability ([6]; first compound 0.1581 µM) was 0.921 and the relative viability ([6]; first compound 0.5 µM) was 0.836. For the same compound, the relative viability ([7]; first compound 0.005 µM) was 0.214, the relative viability ([7]; first compound 0.01581 µM) was 0.203 and the relative viability ([7]; first compound 0.05 µM) was 0.279. The relative viability ([7]; first compound 0.1581 µM) was 0.264, the relative viability ([7]; first compound 0.5 µM) was 0.216 and the relative viability ([8]; first compound 0.005 µM) was 0.376. It also gave a relative viability ([8]; first compound 0.01581 µM) of 0.407, a relative viability ([8]; first compound 0.05 µM) of 0.404 and a relative viability ([8]; first compound 0.1581 µM) of 0.386. For the same compound, the relative viability ([8]; first compound 0.5 µM) was 0.371, the relative viability ([9]; first compound 0.005 µM) was 0.292 and the relative viability ([9]; first compound 0.01581 µM) was 0.449. It also gave a relative viability ([9]; first compound 0.05 µM) of 0.38, a relative viability ([9]; first compound 0.1581 µM) of 0.284 and a relative viability ([9]; first compound 0.5 µM) of 0.276. The relative viability ([10]; first compound 0.005 µM) was 0.309, the relative viability ([10]; first compound 0.01581 µM) was 0.361 and the relative viability ([10]; first compound 0.05 µM) was 0.346. For the same compound, the relative viability ([10]; first compound 0.1581 µM) was 0.27, the relative viability ([10]; first compound 0.5 µM) was 0.267 and the relative viability ([11]; first compound 0.005 µM) was 0.77. It also gave a relative viability ([11]; first compound 0.01581 µM) of 0.819, a relative viability ([11]; first compound 0.05 µM) of 0.815 and a relative viability ([11]; first compound 0.1581 µM) of 0.843. It also gave a relative viability ([11]; first compound 0.5 µM) of 0.848, a relative viability ([12]; first compound 0.005 µM) of 0.351 and a relative viability ([12]; first compound 0.01581 µM) of 0.355. It also gave a relative viability ([12]; first compound 0.05 µM) of 0.388, a relative viability ([12]; first compound 0.1581 µM) of 0.204 and a relative viability ([12]; first compound 0.5 µM) of 0.428. The relative viability ([13]; first compound 0.005 µM) was 0.236, the relative viability ([13]; first compound 0.01581 µM) was 0.246 and the relative viability ([13]; first compound 0.05 µM) was 0.208. For the same compound, the relative viability ([13]; first compound 0.1581 µM) was 0.192, the relative viability ([13]; first compound 0.5 µM) was 0.208 and the relative viability ([14]; first compound 0.005 µM) was 0.6. The relative viability ([14]; first compound 0.01581 µM) was 0.742, the relative viability ([14]; first compound 0.05 µM) was 0.794 and the relative viability ([14]; first compound 0.1581 µM) was 0.911. For the same compound, the relative viability ([14]; first compound 0.5 µM) was 0.772, the relative viability ([15]; first compound 0.005 µM) was 0.431 and the relative viability ([15]; first compound 0.01581 µM) was 0.532. For the same compound, the relative viability ([15]; first compound 0.05 µM) was 0.551, the relative viability ([15]; first compound 0.1581 µM) was 0.445 and the relative viability ([15]; first compound 0.5 µM) was 0.524. It also gave a relative viability ([16]; first compound 0.005 µM) of 0.216, a relative viability ([16]; first compound 0.01581 µM) of 0.242 and a relative viability ([16]; first compound 0.05 µM) of 0.202. For the same compound, the relative viability ([16]; first compound 0.1581 µM) was 0.266, the relative viability ([16]; first compound 0.5 µM) was 0.19 and the relative viability ([17]; first compound 0.005 µM) was 0.986. The relative viability ([17]; first compound 0.01581 µM) was 0.821, the relative viability ([17]; first compound 0.05 µM) was 0.754 and the relative viability ([17]; first compound 0.1581 µM) was 0.604. It also gave a relative viability ([17]; first compound 0.5 µM) of 0.887, a relative viability ([18]; first compound 0.005 µM) of 0.26 and a relative viability ([18]; first compound 0.01581 µM) of 0.241. It also gave a relative viability ([18]; first compound 0.05 µM) of 0.272, a relative viability ([18]; first compound 0.1581 µM) of 0.249 and a relative viability ([18]; first compound 0.5 µM) of 0.254. For the same compound, the relative viability ([19]; first compound 0.005 µM) was 0.152, the relative viability ([19]; first compound 0.01581 µM) was 0.227 and the relative viability ([19]; first compound 0.05 µM) was 0.189. The relative viability ([19]; first compound 0.1581 µM) was 0.193, the relative viability ([19]; first compound 0.5 µM) was 0.15 and the relative viability ([20]; first compound 0.005 µM) was 0.339. The relative viability ([20]; first compound 0.01581 µM) was 0.33, the relative viability ([20]; first compound 0.05 µM) was 0.44 and the relative viability ([20]; first compound 0.1581 µM) was 0.328. The relative viability ([20]; first compound 0.5 µM) was 0.451, the relative viability ([21]; first compound 0.005 µM) was 0.799 and the relative viability ([21]; first compound 0.01581 µM) was 0.887. For the same compound, the relative viability ([21]; first compound 0.05 µM) was 0.788, the relative viability ([21]; first compound 0.1581 µM) was 0.856 and the relative viability ([21]; first compound 0.5 µM) was 0.583. The relative viability ([22]; first compound 0.005 µM) was 0.165, the relative viability ([22]; first compound 0.01581 µM) was 0.173 and the relative viability ([22]; first compound 0.05 µM) was 0.162. The relative viability ([22]; first compound 0.1581 µM) was 0.19 and the relative viability ([22]; first compound 0.5 µM) was 0.208.

Reference: the supplement of paper PMC10307832
